This assay deals with T1, t-PA (Homo sapiens, UniProt P00750).
T1 construct: The t-PA purified from human melanoma (Bowes) cell culture; host or cells: Bowes human melanoma cell culture (purified t-PA)
The experiment in a line: Amidolytic plasmin assay: activation of plasminogen by t-PA (S-2251 substrate). It is filed as biochemical. Conditions: no fibrinogen fragments; 0.09 nM t-PA, 0.42 μM plasminogen, 25° C.

Structures are written as SMILES.

T1 sequence (P00750 36-562): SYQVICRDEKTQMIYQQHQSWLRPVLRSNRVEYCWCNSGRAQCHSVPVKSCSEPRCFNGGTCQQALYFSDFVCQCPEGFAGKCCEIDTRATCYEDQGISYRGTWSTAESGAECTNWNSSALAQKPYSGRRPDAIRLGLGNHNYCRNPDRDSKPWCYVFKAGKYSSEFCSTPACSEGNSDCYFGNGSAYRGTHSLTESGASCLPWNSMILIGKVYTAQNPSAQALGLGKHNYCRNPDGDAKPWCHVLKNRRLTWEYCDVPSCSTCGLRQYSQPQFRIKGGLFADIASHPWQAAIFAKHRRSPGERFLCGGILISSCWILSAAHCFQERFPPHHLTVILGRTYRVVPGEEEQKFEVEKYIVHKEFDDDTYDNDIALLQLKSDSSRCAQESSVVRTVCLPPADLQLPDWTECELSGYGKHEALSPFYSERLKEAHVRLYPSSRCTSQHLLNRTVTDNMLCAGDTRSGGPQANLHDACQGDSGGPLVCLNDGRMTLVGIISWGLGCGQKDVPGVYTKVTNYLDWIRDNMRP
Description: The assay defects lysis of the amide bond of plasminogen in determining their "amidolytic plasmin activity."
The ability of unfractionated HMW-heparin to stimulate amidolytic plasmin activity of a mixture of Lys-plasminogen or Glu-plasminogen and t-PA was measured according to the protocol, previously published by the inventors herein in Biochemistry, 25, 4033 (1986) (hereinafter "the Biochemistry Paper").
To a buffered solution of 200 ul of 0.1M Tris-HCl, pH 8.1, 0.1% (V/V) Tween 80, 0.3 mM chromogenic plasmin substrate H-D-Val-Leu-Lys-pNA (S-2251, Kabi, Sweden) was added. To this mixture, HMW-heparin fractions (the Ca and Na salts, respectively) in concentrations ranging from 0 to 25 units/ml and 0.42 μM Glu- or Lys- plasminogen were added. […]
The solutions were incubated in microliter plates at 25° C. The change in absorbance (ΔA) at 405 nm was measured against blanks without t-PA in a Bio-Tek model EL-308 microplate reader.
It should be noted that plasmin activity was actually being measured in this assay and that the plasmin concentration was increasing as a function of time due to the action of the plasminogen activators on plasminogen. Thus, plots of absorbance vs. time are parabolic, whereas plots of absorbance vs. time squared are linear. Therefore, the slopes of plots of absorbance vs. time squared were used as a measure of the rate (VO) of plasmin generation. […]

For the molecule `[Cl-].[Na+]` [NaCl], the “effect on amidolytic plasmin activity (plasmin generation) of t-PA-plasminogen mixture” value is “did not cause a marked decrease”.

Values taken from US5130143A, “Use of a low affinity-heparin fraction in conjunction with t-PA for thrombolytic therapy” (The Research Foundation of State University of New York, priority 1988, dated 1992).
